Experimental data: patent US20070179162A1, “Triazolopyrimdines” (priority 2003, published 2007)

Assays:
Alternaria solani = assay: Alternaria test (tomato)/protective; type: in vivo; conditions: tomato plants, protective, applied quantity 750 g/ha, analysis 7 days after inoculation; 100% = no infection
Protocol: Alternaria Test (Tomato)/Protective Solvent: 49 parts by weight N,N-dimethyl formamide Emulsifier: 1 part by weight alkyl aryl polyglycolether To produce an effective active ingredient preparation, 1 part by weight active ingredient is mixed with the specified quantities of solvent and emulsifier and the concentrate is diluted using water to the desired concentration. To test for protective activity, young tomato plants are sprayed with the active ingredient preparation in the specified applied quantity. 1 day after the treatment, the plants are inoculated with a spore suspension of Alternaria solani and then stand 24 hours at 100% relative humidity and 20° C. The plants are then stand at 96% relative humidity and a temperature of 20° C. The analysis is performed 7 days after the inoculation. In this case, 0% means an activity which corresponds to that of the control, while an activity of 100% means that no infection is observed.

[1] = logP determination through HPLC (gradient method, acetonitrile/0.1% aqueous phosphoric acid); type: physicochemical

- chromatographic logP [1]: 3.27
Compound: CC1CCC(c2c(-c3ncncc3Cl)c(Cl)nc3ncnn23)CC1 (centres unmarked) [Example 1, 5-chloro-6-(5-chloro-4-pyrimidinyl)-7-(4-methylcyclohexyl)[1,2,4]triazolo[1,5-a]pyrimidine]
- activity (Alternaria solani): 100%
